From patent US10092657B2, “Opsonized β-glucan preparations and methods” (Biothera, Inc., priority 2011, dated 2018)

Legend:
human neutrophils = assay: Binding of PGG β-glucan to human neutrophils (BfD IV staining, flow cytometry); type: cell-based
Description: Enriched neutrophils or PBMC were resuspended at 1×10^6 cells/mL in RPMI 1640 supplemented with 10% serum. PGG β-glucan at hexose concentrations 100 μg/mL, 200 μg/mL, or 400 μg/mL were added to neutrophils or PBMC and incubated in a 37° C., 5% CO2 humidified incubator for two hours. After incubation, cells were washed twice with FACS buffer (HBSS supplemented with 1% FBS and 0.1% sodium azide) to remove any unbound β-glucan, and subsequently treated with Fc block (Miltenyi Biotec, Auburn, Calif.). […] Cells were then incubated with FITC-conjugated F(ab′)2 goat anti-mouse IgM for 30 minutes at 4° C. and washed once with cold FACS buffer before fixing with 1% paraformaldehyde. In early optimization experiments, neutrophils, monocytes, and T cells were identified by staining with fluorescently labeled anti-CD 15, anti-CD 14, or anti-CD3 Abs, respectively. Events were collected on a LSRII flow cytometer (BD Biosciences, San Jose, Calif.) and analysis was performed using FLOWJO (Tree Star, Ashland, Oreg.). […] Surface binding of DTAF-conjugated β-glucan was subsequently assessed by flow cytometric analysis. […] The experiments to determine binding of PGG β-glucan at 200 μg/mL to neutrophils or at 100 μg/mL to PBMC were performed as described above with the following changes. For determining serum dependency, PGG β-glucan was incubated with neutrophils or PBMC resuspended in RPMI 1640 containing 2%, 5%, or 10% autologous serum at 37° C. for two hours. For time-course experiments, PGG β-glucan at indicated concentrations was incubated with cells resuspended in 10% autologous serum at 37° C. for 10 minutes, 20 minutes, 60 minutes, or 120 minutes. For temperature dependency experiments, PGG β-glucan at indicated concentrations was incubated with cells resuspended in 10% autologous serum for two hours at 4° C., room temperature, or 37° C.

human monocytes [1] = assay: Binding studies on the role of complement proteins in serum, monocytes; type: cell-based
Description: Heat-inactivated (HI) serum was prepared by incubating serum in a 56° C. water bath for 30 minutes. […] Treatment of serum with methylamine (MA) was done by incubating serum with 0.67% of methylamine for 2.5 hours at 37° C., followed by three washes with DPBS using Amicon centrifugal filter unit with a 3K MW cut-off (Millipore, Billerica, Mass.). DPBS-treated serum was prepared in the same manner and used as control serum for MA-treated serum. For blocking of factor D in the serum, 166-32 at concentration 20 μg/mL was incubated with serum on ice for 30 minutes, and then used for binding studies. For binding experiments in the presence of EGTA or MgEGTA, serum was incubated with 10 mM EGTA with or without 10 mM MgCl2 for 10 minutes at room temperature. The untreated and EGTA/MgEGTA-treated serum was then used to pre-treat PGG and perform binding studies as described earlier.

iC3b = biological target: T1, iC3b (Homo sapiens, UniProt P01024); assay: ELISA for iC3b deposition on immobilized PGG β-glucan; type: binding; conditions: 300 μg/mL immobilized
T1 construct: from tissue
Description: PGG β-glucan or dextran was immobilized on wells of a 96-well polystyrene plate (COSTAR, Coming, Inc., Lowell, Mass.) by drying the glucans at 50° C. followed by UV cross-linking. The glucan-coated plate was first blocked with 1% BSA before incubation with untreated serum or serum undergone various treatments as described in binding studies, diluted 1:2 with wash buffer (PBS/0.05% Tween-20) for 30 minutes at 37° C. After washing the serum from the plate, the bound iC3b was probed using the anti-iC3b monoclonal antibody followed by biotin-labeled goat anti-mouse IgG Ab. The amount of immobilized biotin-labeled antibody was determined using streptavidin peroxidase and TMB substrate solution (KPL, Gaithersburg, Md.). OD450 of each well was measured with the spectrophotometer SpectraMAX 250 (Molecular Devices, Sunnyvale, Calif.). Fold change was calculated as OD450 of wells containing immobilized β-glucan divided by OD450 of wells containing no β-glucan, both incubated in the presence of treated or untreated serum.

human monocytes [2] = assay: iC3b staining on PGG β-glucan-bound monocytes (flow cytometry); type: cell-based; conditions: 100 μg/mL; 10% serum; 37° C.; two hours
Description: Binding of PGG β-glucan to neutrophils and PBMC was done as above. iC3b deposition on these cells was detected by staining with a neo-epitope specific anti-iC3b Ab and PE-conjugated goat anti-mouse IgG and analyzing by flow cytometry.

sC5b-9 complex = assay: Measurement of fluid-phase SC5b-9 complex formation in the serum; type: biochemical, human
Description: The MicroVue SC5b-9 EIA kit was used to measure activation of the classical and alternative pathways of complement according to the vendor's instruction (Quidel Corp., San Diego, Calif.). Briefly, the serum, untreated or treated was mixed with PBS, Ab-sensitized sheep RBC (SRBC), or 20 units of CVF and added to plate wells pre-coated with anti-sC5b-9 monoclonal antibody. The plate was incubated at 37° C. for 60 minutes, followed by five washes with the provided wash buffer. The plate was then incubated with the provided SC5b-9 Plus Conjugate, which contained horseradish peroxidase-conjugated Ab specific for sC5b-9 at room temperature for 30 minutes. The plate was washed five times, incubated with the substrate for 15 minutes at room temperature to initiate the enzymatic reaction and subsequently quenched with the stop solution. OD450 Was measured using the spectrophotometer SpectraMAX 250. The concentration of fluid phase sC5b-9 present in the samples was determined from the standard curve generated with the provided sC5b-9 standards.

[3] = 2%, 5% or 10% autologous serum, 37° C., two hours

T1 sequence (P01024 749-1303 limits assumed): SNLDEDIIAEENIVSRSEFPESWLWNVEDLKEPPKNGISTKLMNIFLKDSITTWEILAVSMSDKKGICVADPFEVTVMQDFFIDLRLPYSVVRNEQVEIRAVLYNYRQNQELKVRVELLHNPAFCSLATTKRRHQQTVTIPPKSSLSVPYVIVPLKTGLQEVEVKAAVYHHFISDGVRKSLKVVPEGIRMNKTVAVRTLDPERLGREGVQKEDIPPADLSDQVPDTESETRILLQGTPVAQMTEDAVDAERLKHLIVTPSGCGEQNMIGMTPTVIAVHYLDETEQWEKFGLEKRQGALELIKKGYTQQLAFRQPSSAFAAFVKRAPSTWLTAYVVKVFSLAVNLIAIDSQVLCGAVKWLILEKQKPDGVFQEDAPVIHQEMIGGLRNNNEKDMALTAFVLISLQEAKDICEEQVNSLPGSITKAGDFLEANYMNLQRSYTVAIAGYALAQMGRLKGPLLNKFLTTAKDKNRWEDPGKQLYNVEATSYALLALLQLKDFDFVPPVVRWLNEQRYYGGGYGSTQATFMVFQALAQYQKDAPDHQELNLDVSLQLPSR
T1 sequence (P01024 23-667 partner limits assumed): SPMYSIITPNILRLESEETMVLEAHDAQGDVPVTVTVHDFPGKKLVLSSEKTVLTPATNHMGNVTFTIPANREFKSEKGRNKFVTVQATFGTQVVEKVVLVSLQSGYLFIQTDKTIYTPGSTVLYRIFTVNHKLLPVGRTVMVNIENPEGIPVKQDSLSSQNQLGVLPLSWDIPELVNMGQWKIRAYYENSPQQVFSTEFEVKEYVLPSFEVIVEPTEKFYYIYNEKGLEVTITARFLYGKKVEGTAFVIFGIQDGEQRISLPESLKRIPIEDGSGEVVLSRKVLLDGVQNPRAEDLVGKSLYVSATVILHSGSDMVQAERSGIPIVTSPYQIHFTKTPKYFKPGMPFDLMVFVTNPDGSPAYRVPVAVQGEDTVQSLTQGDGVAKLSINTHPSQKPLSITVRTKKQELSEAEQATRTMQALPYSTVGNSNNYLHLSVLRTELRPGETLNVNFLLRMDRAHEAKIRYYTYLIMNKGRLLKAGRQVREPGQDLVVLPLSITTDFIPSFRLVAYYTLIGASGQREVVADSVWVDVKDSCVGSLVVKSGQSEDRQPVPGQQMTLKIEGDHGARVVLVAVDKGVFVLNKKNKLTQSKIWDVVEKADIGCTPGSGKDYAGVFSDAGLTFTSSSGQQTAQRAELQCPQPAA
T1 sequence (P01024 1321-1663 partner limits assumed): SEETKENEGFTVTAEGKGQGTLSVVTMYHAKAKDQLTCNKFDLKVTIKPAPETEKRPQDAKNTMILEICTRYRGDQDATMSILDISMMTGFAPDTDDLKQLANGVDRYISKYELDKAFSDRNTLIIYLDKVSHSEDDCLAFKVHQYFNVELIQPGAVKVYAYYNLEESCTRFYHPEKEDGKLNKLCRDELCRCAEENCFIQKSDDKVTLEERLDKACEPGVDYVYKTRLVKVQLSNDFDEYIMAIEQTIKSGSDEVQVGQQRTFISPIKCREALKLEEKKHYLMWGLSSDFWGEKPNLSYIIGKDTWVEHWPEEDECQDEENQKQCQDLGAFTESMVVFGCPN

β(1,6)-[poly-1,3)-D-glucopyranosyl]-poly-β(1,3)-D-glucopyranose [PGG β-glucan]
Minimum concentration of β-glucan detected on the cells by the BfD IV detection system (human neutrophils): 100 µg/mL
Incubation time of maximal binding (human neutrophils; 200 μg/mL, 10% serum, 37° C.): 30 to 60 min
Percentage of serum at which maximal binding occurred (human neutrophils; [3]): 10%
Percentage of serum at which minimum binding occurred (human neutrophils; [3]): 2%
Concentration at which percentage of BfD IV positive cells reached a plateau (human neutrophils; 10% autologous serum, 37° C., two hours): 200 µg/mL
Binding (MFI and percentage of BfD IV positive cells) (human neutrophils; 100, 200, 400 μg/mL, 10% autologous serum, 37° C., two hours): bound to both neutrophils and monocytes
Incubation temperature of maximal binding (human neutrophils; two hours at 4° C., room temperature or 37° C., 10% serum): 37 °C
Binding in the presence of heat inactivated (HI) serum (human monocytes [1]; 10% HI serum vs regular serum, 100 μg/mL): abrogated
Average percentage of binding inhibition in HI serum (human monocytes [1]; based on MFI, five donors): 90%
Range of percentage of binding inhibition in HI serum (human monocytes [1]; based on MFI, five donors): 81-100%
Fold increase of iC3b detected on immobilized glucan compared to background (iC3b; HI serum 30 minutes at 37° C.): significantly less iC3b detected
Fold increase of iC3b detected on immobilized glucan compared to background (iC3b; regular serum 30 minutes at 37° C.): significantly higher
iC3b staining on cells incubated with β-glucan vs serum alone (human monocytes [2]): increased staining of iC3b
Formation of terminal complement complexes (fluid phase MAC) in serum treated with the glucan (sC5b-9 complex): did not activate formation of terminal complement complexes
